Reference: PMC5196007 (Journal of pharmaceutical and biomedical analysis, 2016)
Read-outs that look alike come from different tables or passages of the source.

Legend:
[1] = Stability of analytes in whole blood samples; type: in vitro ADME, rat; conditions: n = 6
[2] = tested on: CE-1; conditions: with alcohol co-administration, cited from earlier work
[3] = tested on: butyrylcholinesterase (BChE) and liver carboxyesterase-2 (CE-2); conditions: in humans; cited from earlier work
[4] = Pharmacokinetic study with co-administration of cocaine and alcohol in rats; type: in vivo, Male Sprague–Darley rats; conditions: 60 mg/kg cocaine IP, 30 min after 1 g/kg alcohol or saline IP, both groups
[5] = Bench top (4 hours, room temperature), high concentration 190–320 ng/ml (1 µM)
[6] = Bench top (4 hours, room temperature), low concentration 1.9–3.2 ng/ml (0.01 µM)
[7] = Bench top (4 hours, room temperature), medium concentration 95–160 ng/ml (0.5 µM)
[8] = Freeze-thaw (4 cycles), high concentration 190–320 ng/ml (1 µM)
[9] = Freeze-thaw (4 cycles), low concentration 1.9–3.2 ng/ml (0.01 µM)
[10] = Freeze-thaw (4 cycles), medium concentration 95–160 ng/ml (0.5 µM)
[11] = Long-term (−70°C, 4 months), high concentration 190–320 ng/ml (1 µM)
[12] = Long-term (−70°C, 4 months), low concentration 1.9–3.2 ng/ml (0.01 µM)
[13] = Long-term (−70°C, 4 months), medium concentration 95–160 ng/ml (0.5 µM)

Structure (SMILES) | Stability Bias (%) [1, 5] | Stability Bias (%) [1, 6] | Stability Bias (%) [1, 7] | Stability Bias (%) [1, 8] | Stability Bias (%) [1, 9] | Stability Bias (%) [1, 10] | Stability Bias (%) [1, 11] | Stability Bias (%) [1, 12] | Stability Bias (%) [1, 13] | fraction of cocaine converted to cocaethylene through transesterification ([2]; intravenous cocaine) | fraction of cocaine converted to cocaethylene through transesterification ([2]; oral cocaine) | fraction of cocaine converted to cocaethylene through transesterification ([2]; smoked cocaine) | fraction of cocaine hydrolyzed to ecgonine methyl ester (EME) [3] | highest blood concentration [4] | time of highest blood concentration after the injection of cocaine [4]
CCOC(=O)[C@@H]1C2CCC(C[C@@H]1OC(=O)c1ccccc1)N2C (stereo partly drawn) [Cocaethylene, cocaethylene] | 0.2% | 1.7% | −2.1% | −4.1% | 0.7% | −3.7% | −0.6% | 3.7% | −1.8% | – | – | – | – | – | –
COC(=O)[C@H]1[C@@H](OC(=O)c2ccccc2)C[C@@H]2CC[C@H]1N2C [Cocaine] | −6.7% | 2.3% | 0.3% | −4.7% | 2.8% | −0.7% | −3.1% | −0.4% | 3.1% | ~ 24% | ~ 34% | ~ 18% | approximately 40% | ~ 2400 ng/ml | 20 min
COC(=O)[C@H]1[C@@H](OC(=O)c2ccccc2)C[C@@H]2CC[C@H]1N2 [Norcocaine, norcocaine] | 0.6% | −1.1% | 3.5% | −1.2% | −1.0% | −0.2% | −1.4% | −2.9% | 2.2% | – | – | – | – | – | –
CCOC(=O)[C@@H]1[C@H]2CC[C@@H](C[C@@H]1O)N2C [EEE, ecgonine ethyl ester] | 6.8% | 1.2% | −4.4% | 9.4% | −3.2% | −9.3% | −5.2% | −2.2% | −5.2% | – | – | – | – | – | –
CCOC(=O)[C@H]1[C@@H](O)C[C@@H]2CC[C@H]1N2 [NEEE, norecgonine ethyl ester] | 3.7% | 1.4% | 2.4% | 6.5% | 1.2% | 3.3% | −11.9% | −1.3% | −0.2% | – | – | – | – | – | –
COC(=O)[C@H]1[C@@H](O)C[C@@H]2CC[C@H]1N2 [NEME, norecgonine methyl ester] | −2.2% | −14.3% | −1.5% | 0.1% | −12.8% | −5.4% | −8.7% | −13.0% | −1.7% | – | – | – | – | – | –
CCOC(=O)[C@H]1[C@@H](OC(=O)c2ccccc2)C[C@@H]2CC[C@H]1N2 [Norcocaethylene, norcocaethylene] | −2.2% | −0.2% | −0.9% | −6.4% | 0.1% | −4.4% | 2.8% | −1.0% | −1.3% | – | – | – | – | – | –
COC(=O)[C@@H]1[C@H]2CC[C@@H](C[C@@H]1O)N2C [EME, ecgonine methyl ester] | 0.3% | −9.6% | 5.9% | 4.0% | 2.1% | 4.2% | 3.5% | −3.1% | 6.3% | – | – | – | – | – | –
CN1[C@H]2CC[C@@H]1[C@@H](C(=O)O)[C@@H](OC(=O)c1ccccc1)C2 [BE, benzoylecgonine] | 1.7% | −0.5% | 0.7% | 3.4% | −0.9% | 5.5% | 3.8% | −1.4% | 2.2% | – | – | – | – | – | –
